Measured values published in patent US20060110439A1, “Dermal delivery of n-methyl-glucamine and n-methyl-glucamine compounds” (Dynamis Therapeutics, Inc., priority 2004, published 2006).

Assays:
[1] = test system: 3DG-dependent crosslinking of collagen type I; assay: Inhibition of 3DG collagen crosslinking in vitro (CnBr digest, SDS-PAGE); type: biochemical; settings: calf skin collagen type 1, 5 mM 3DG plus 10 mM arginine, 24 hr
Description: The direct inactivation of 3DG is a method of reducing 3DG levels. Calf skin collagen type 1 (1.3 mg) was incubated with no addition, with 5 mM 3DG, or with 5 mM 3DG plus 10 mM of arginine for 24 hr. Each sample was digested with cyanogen bromide (CnBr) to create peptide fragments that are visualized by sodium-dodecyl sulfate-polyacrylamide gel electrophoresis (SDS-PAGE) (FIG. 4). Lane 2 is collagen alone; lane 3 is collagen plus 5 mM 3DG; and lane 4 is collagen plus 5 mM 3DG plus 10 mM arginine. Lanes 5, 6, and 7 are the same, but with twice as much sample applied.
Crosslinking was assessed by visually determining the amount of high molecular weight protein remaining near the origin of the resolving gel, as compared to the amount that migrates into the gel matrix. The more crosslinking that exists, the more material there is near the origin of the gel. The lanes containing collagen with 3DG (#3, #6) have more material residing at the origin than those containing collagen alone (#2, #5).

[2] = test system: 3DG; settings: in vivo; cited from earlier work

| Structure (SMILES) | 3DG crosslinking of collagen (high molecular weight protein near gel origin, visual) [1] | urinary or plasma 3DG [2] |
| --- | --- | --- |
| N=C(N)NCCC[C@H](N)C(=O)O [arginine] | able to inactivate 3DG and prevent it from crosslinking collagen |  |
| N[C@@H](CCCCNC[C@H](O)[C@@H](O)[C@@H](O)[C@H](O)CO)C(=O)O [galactitollysine] |  | reduced |
| N[C@@H](CCCCNC[C@@H](O)[C@@H](O)[C@H](O)[C@H](O)CO)C(=O)O [mannitollysine] |  | reduced |
| CNC[C@H](O)[C@@H](O)[C@H](O)[C@H](O)CO [meglumine, N-methyl glucamine] |  | reduced |
| N[C@@H](CCCCNC[C@H](O)[C@@H](O)[C@H](O)[C@H](O)CO)C(=O)O [sorbitollysine] |  | reduced |
